Source: patent US8338420B1, “Treatment of Parkinson's disease and enhancement of dopamine signal using PDE 10 inhibitor” (Mitsubishi Tanabe Pharma Corporation, priority 2002, dated 2012)

What was measured:
[1] = test system: neurons of corpus striatum; assay: Change in intracellular cAMP in primary cultured neurons of corpus striatum; format: cell-based, Wistar rat
Description: (1) Primary culture of neurons of corpus striatum Female Wistar rats on day 14 or day 15 of pregnancy were purchased from Japan SLC, Co. Ltd., and fetuses were taken out on day 18 of pregnancy. From the fetus, the brain was excised, and stored on ice-cold Leibovitz's L-15 medium (available from GIBCO) or on DMEM/F-12 medium (available from GIBCO). In the same medium, dura matter was removed and corpus striatum was collected. This striatum part was treated by trypsin to diffuse neurons, and the neurons were diluted and diffused in DMEM medium containing 10% bovine fetal serum. These neurons were inoculated in 48-well plate coated with 0.01% poly-L-lysine (available from Sigma) (2×10^5 cells/well) and cultured. On the next day, the medium was changed to Neurobasal medium (available from GIBCO), containing 50 fold-diluted B-27 supplement (available from GIBCO), and then, half of the medium was replaced on day 4, 7 and 9 of culture, to continue culture.
As in the above (1), neurons were cultured, and on day 10 of culture, the medium was removed, and then, a test compound (PDE10 inhibitors, etc.) diluted with Hank's balanced salt solution were added, and incubated at 37° C. for 15 minutes. Following that, forskolin (final concentration of 1 μM) or dopamine (final concentration of 100 nM) or D1 agonist (SKF82958 Sigma) (final concentration of 3 nM, 10 nM, 30 nM) was added thereto, and further incubated at 37° C. for 15 minutes.
Intracellular cAMP was measured using cAMP EIA kit available from Amersham Biosciences. Accordingly, after removing the reaction mixture, lysis buffer 1B (attached to cAMP EIA kit) was added to stop the reaction, and to lead cytolysis, and intracellular cAMPs were extracted. An amount of cAMPs in the extract was measured according to a protocol attached to the cAMP EIA kit.

PDE2 = target: T1, PDE2 (Bos taurus, UniProt P14099); assay: PDE assay, PDE2 enzyme solution from bovine adrenal gland; format: biochemical, Japanese Black Cattle; conditions: substrate about 12 nM [3H]-cGMP and 1 μM cGMP
T1 construct: tissue Tokyo Shibaura Zoki; host or cells: bovine adrenal gland, soluble fraction, ion-exchange fractions
T1 sequence (P14099 1-921): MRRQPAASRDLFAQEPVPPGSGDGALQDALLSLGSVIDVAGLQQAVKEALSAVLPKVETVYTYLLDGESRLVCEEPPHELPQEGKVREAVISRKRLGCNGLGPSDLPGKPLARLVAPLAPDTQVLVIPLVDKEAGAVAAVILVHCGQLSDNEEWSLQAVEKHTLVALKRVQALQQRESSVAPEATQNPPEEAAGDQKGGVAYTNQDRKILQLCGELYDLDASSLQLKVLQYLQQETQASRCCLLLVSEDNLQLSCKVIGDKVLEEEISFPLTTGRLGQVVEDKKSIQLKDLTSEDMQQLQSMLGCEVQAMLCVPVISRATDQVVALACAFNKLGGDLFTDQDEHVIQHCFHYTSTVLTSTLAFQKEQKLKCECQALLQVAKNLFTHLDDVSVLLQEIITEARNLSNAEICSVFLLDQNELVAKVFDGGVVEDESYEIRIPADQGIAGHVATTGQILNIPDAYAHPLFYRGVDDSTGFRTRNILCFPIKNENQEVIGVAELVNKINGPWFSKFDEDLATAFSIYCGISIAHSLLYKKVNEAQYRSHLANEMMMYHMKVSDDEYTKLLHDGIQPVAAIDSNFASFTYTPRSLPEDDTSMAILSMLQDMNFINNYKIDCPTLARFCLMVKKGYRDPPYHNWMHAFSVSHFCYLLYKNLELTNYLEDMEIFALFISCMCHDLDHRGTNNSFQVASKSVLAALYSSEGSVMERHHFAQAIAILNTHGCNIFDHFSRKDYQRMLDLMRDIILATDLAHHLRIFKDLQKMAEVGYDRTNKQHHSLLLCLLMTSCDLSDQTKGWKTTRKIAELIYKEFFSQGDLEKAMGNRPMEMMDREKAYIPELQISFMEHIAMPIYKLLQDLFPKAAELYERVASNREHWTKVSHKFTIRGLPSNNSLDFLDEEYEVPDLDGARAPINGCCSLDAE
Description: One adrenal gland of Japanese Black Cattle, purchased from Tokyo Shibaura Zoki, co., Ltd. was washed with 100 ml of ice-cold saline (0.9% sodium chloride) twice. Subsequently, the tissues were cut into about 1 gram, and it was frozen by liquid nitrogen. To about 2 g of this tissue sample was added 10 ml of an ice-cold homogenization buffer II (25 mM Tris-HCl, pH 7.5, 4 mM magnesium chloride, 0.5 mM EGTA, 2 mM dithiothreitol, 4 mM benzamidine, 0.1 mM phenylmethylsulfonyl fluoride), and the homogenate that was homogenized by Polytron homogenizer for 3 minutes was centrifuged at 8000 rpm, at 4° C. for 20 minutes, and the obtained supernatant was further centrifuged by an ultracentrifuge at 50000 rpm, at 4° C. for 60 minutes. The resultant supernatant was stored at 4° C.
This supernatant was applied to chromatography under the FPLC system, in the same manner as in Example 1 (1) above. […]
Subsequently, the eluted fractions were used as an enzyme solution for PDE assay, and cGMP-hydrolyzing activity was measured. Or, cAMP-hydrolyzing activity was measured for respective fractions, in the presence or absence of unlabeled cGMP. […]

COc1ccc(-c2cc(N3CCCC3)nc(/C=C/c3nc(-n4ccnc4)c4ccccc4n3)n2)cc1OC [Compound A, 2-{(E)-2-[4-(1-imidazolyl)-quinazolin-2-yl]}ethenyl-4-(3,4-dimethoxy)phenyl-6-(pyrrolidin-1-yl)pyrimidine]
intracellular cAMP increase caused by dopamine stimulus in neuron ([1]; compound concentration 1 μM, dopamine 100 nM): enhanced intracellular cAMP increase caused by dopamine stimulus | intracellular cAMP increase caused by D1 agonist (SKF82958) stimulus in neuron ([1]; compound concentration 10 μM, 1 μM): enhanced intracellular cAMP increase caused by D1 agonist | intracellular cAMP increase caused by forskolin stimulus in neuron ([1]; compound concentration 10 μM, 1 μM, forskolin 1 μM): enhanced intracellular cAMP increase caused by forskolin stimulus | IC50 (PDE2): > 1000 nM
